Read-outs that look alike come from different tables or passages of the source.
What was measured:
[1] = tested on: human lung carcinoma (A549) cells; assay: cells; type: cell-based; settings: read-out: Neutral Red Uptake test IC50
[2] = tested on: Madin Darby canine kidney (MDCK) cells; assay: cells; type: cell-based; settings: Canis lupus familiaris, cytotoxic concentration, positive control drug = ribavirin, read-out: CPE Inhibition test IC50
HSV = assay: Transmission electron microscopy of virion morphology in HSV-infected HUVEC; type: cell-based
uninfected cells [3] = assay: Cytotoxicity, neutral red uptake by toxicity control cells (rhinovirus host cells, not named); type: cell-based; settings: read-out: Neutral Red Uptake test IC50
Description: (§1) Cytotoxicity of each test compound is also evaluated as follows. In the initial CPE inhibition tests, two wells of uninfected cells treated with each concentration of test compound are run in parallel with the infected, treated wells. When the CPE is determined microscopically, the toxicity control cells are also examined microscopically for any changes in cell appearance compared to normal uninfected, untreated control cells. Changes, which may manifest as enlargement, granularity, ragged edges, filmy appearance, rounding, detachment from the surface of the well, or other changes, are given a designation of T (100% toxic), PVH (partially toxic-very heavy-80%), PH (partially toxic-heavy-60%), P (partially toxic-40%), PS (partially toxic-slight-20%) or 0 (no toxicity-0%) in accordance with the degree of cytotoxicity observed. […] A neutral red IC50 is also determined based on uptake of neutral red dye by the toxicity control cells.

CMV strain VHL/E = assay: Transmission electron microscopy of virion morphology in CMV-infected HUVEC; type: cell-based; settings: 200 µM A771726, 4-7 days
Description: Transmission electron microscopy.was employed to directly examine virion morphology within A771726-treated or untreated CMV-infected HUVEC. HUVEC monolayers in 6-well culture plates were inoculated with CMV strain VHL/E (1.0 PFU/cell) in the presence or absence of 200 µM A771726 as described above, and incubated for 4-7 days. Cells were harvested by brief trypsin digestion, washed twice in PBS, then fixed by the.addition of 1 ml 2% phosphate buffered gluteraldehyde and again pelleted by centrifugation. Specimens were post-fixed in 1% phosphate buffered osmium tetroxide (1 hour), then dehydrated in graded ethanol washes. Specimens were embedded in Spur low viscosity embedding media (SEM). Blocks were cured for a minimum of 12 hours at 70°C. Thin sections (approximately 100 nm) were cut from cured blocks using an ultramicrotome (LKB Nova), and mounted on 200 mesh copper grids. Grids were heavy metal-stained using a standard two-step uranyl acetate/lead citrate technique, then examined and photographed at 80 kV with a Zeiss EM900 transmission electron microscope by an individual with no knowledge of the nature of the investigation.

uninfected cells [4] = assay: Cytotoxicity, microscopic reading of uninfected cells in the CPE inhibition test (rhinovirus host cells, not named); type: cell-based
Description: as §1

[5] = tested on: viral immediate early (IE1) or late glycoprotein (gB) mRNA; assay: Northern blot of viral mRNA in infected HUVEC; type: cell-based, CMV; settings: 200 µM A771726, 48 hours
Description: Northern blot analysis was employed to determine whether A771726 quantitatively affected transcription of viral immediate early (IE1) or late glycoprotein (gB) mRNA.
HUVEC monolayers in 6-well culture plates were inoculated with CMV strain VHL/E (0.5 PFU/cell) in the presence or absence of 200 µM A771726 and/or 200 µM uridine (6 wells/treatment) as described above, and incubated for 48 hours. […] Total cytoplasmic RNA was isolated from each culture, by 18-hour ultracentrifugation of guanidine isothiocyanate/BME extracts overlayed on cesium chloride cushions. […] 50 ng of full-length IE1 and gB were incubated in a 50 µl PCR reaction including a nucleotide triphosphate mix containing 700 nM α-[^32P]dCTP (Amersham) and either IE1 primers [IE1 sense: 5' […] 3' (SEQ ID NO: 1) and IE1 antisense: 5'[…] 3' (SEQ ID NO: 2)] or gB primers [gB sense: 5 […] 3' (SEQ ID NO: 3) and gB antisense: 5' […] 3' (SEQ ID NO: 4)]. A cDNA probe for GAPDH was radiolabelled using a random priming kit (Decaprime II, Ambion, Inc., Austin TX) as previously described. […] Membranes were hybridized, washed, and bound probe was detected by autoradiography as previously described. Membranes were stripped and reprobed for GAPDH, and scanning densitometry was used to quantitate IE1 and gB band densities, and to normalize these values to those of GAPDH.

[6] = tested on: African green monkey kidney (CV-1) cells; assay: cells; type: cell-based; settings: Chlorocebus sabaeus, read-out: CPE Inhibition test IC50
HSV DNA polymerase = molecular target: T1, HSV DNA polymerase (Human herpesvirus 1, UniProt P04293); assay: HSV DNA polymerase biochemical assay; settings: all HSV isolates in VERO cells and HUVEC
T1 construct: a biochemical assay of HSV DNA polymerase activity in HSV-infected cells; endogenous in cells
T1 sequence (P10226 whole entry): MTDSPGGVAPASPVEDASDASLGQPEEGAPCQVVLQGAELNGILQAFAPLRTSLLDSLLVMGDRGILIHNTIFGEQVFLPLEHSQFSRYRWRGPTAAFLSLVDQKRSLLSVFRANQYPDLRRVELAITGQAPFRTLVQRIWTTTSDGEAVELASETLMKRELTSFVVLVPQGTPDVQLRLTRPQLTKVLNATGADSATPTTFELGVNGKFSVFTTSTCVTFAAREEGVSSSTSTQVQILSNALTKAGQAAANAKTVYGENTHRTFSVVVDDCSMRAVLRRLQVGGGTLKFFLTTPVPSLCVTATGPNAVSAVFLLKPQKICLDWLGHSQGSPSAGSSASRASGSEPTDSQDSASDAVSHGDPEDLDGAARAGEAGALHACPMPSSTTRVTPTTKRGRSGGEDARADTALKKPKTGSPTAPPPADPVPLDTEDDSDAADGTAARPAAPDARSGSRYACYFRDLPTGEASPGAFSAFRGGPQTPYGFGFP
T1 sequence (P04293 whole entry): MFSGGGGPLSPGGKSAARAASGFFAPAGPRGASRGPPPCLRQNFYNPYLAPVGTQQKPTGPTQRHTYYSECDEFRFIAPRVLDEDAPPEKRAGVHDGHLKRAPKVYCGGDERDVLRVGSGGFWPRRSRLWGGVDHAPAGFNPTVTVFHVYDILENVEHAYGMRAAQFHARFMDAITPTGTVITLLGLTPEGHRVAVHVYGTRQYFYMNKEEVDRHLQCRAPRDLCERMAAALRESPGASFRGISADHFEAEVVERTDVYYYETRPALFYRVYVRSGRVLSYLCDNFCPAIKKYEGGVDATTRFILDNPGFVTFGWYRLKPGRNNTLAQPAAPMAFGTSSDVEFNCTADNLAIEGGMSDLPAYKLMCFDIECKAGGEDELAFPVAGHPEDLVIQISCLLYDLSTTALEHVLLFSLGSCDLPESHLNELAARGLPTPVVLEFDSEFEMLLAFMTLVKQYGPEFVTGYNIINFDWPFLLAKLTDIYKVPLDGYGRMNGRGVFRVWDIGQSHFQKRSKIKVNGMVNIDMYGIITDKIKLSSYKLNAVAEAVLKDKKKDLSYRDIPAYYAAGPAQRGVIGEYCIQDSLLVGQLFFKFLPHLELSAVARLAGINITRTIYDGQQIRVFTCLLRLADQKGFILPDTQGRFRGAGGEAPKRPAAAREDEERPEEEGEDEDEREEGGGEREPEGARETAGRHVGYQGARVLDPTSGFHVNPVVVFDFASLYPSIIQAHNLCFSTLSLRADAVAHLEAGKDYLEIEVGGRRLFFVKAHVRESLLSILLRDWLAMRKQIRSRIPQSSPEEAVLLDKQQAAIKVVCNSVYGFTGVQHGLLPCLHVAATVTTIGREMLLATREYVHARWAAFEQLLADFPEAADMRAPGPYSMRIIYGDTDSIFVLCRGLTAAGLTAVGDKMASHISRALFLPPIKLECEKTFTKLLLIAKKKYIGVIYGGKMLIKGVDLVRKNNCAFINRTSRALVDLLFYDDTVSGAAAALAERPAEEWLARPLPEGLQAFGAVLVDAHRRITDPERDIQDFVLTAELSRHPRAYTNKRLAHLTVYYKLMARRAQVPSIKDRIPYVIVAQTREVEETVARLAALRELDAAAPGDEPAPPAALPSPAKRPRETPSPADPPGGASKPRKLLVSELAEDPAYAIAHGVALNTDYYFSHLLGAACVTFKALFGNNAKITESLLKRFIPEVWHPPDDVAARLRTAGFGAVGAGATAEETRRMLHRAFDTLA

[7] = tested on: African green monkey kidney (MA-104) cells; assay: Cytotoxicity, neutral red uptake by toxicity control cells; type: cell-based; settings: Chlorocebus sabaeus, MA104, cytotoxic concentration, positive control drug = ribavirin, read-out: Neutral Red Uptake test IC50
[8] = tested on: African green monkey kidney (MA-104) cells; assay: cells; type: cell-based; settings: Chlorocebus sabaeus, MA104, cytotoxic concentration, positive control drug = ribavirin, read-out: CPE Inhibition test IC50
[9] = run with Parainfluenza Type 3 Virus
[10] = run with Respiratory Syncytial Virus A

## C/C(O)=C(\C#N)C(=O)Nc1ccc(C(F)(F)F)cc1 [Compound A771726, N-(4-trifluoromethylphenyl)-2-cyano-3-hydroxycrotonamide]
[1]
  IC50: 580 µM
[2]; run with Influenza A (H1N1)
  IC50: 29 µM
[2]; run with Influenza A (H3N2)
  IC50: 30 µM
[2]; run with Influenza B
  IC50: 50 µM
HSV
  virion morphology, tegument acquisition: appear not to acquire tegument
Uninfected cells [3]
  IC50: 500 µM
CMV strain VHL/E
  virion morphology in the cytoplasm: viral particles appeared not to have matured far beyond the 100 nM naked capsid stage
Uninfected cells [4]
  IC50: 1000 µM
[5]
  transcription of IE1 or gB genes: no inhibitory effect
[6]
  IC50: > 660 µM
HSV DNA polymerase
  HSV DNA polymerase activity: no detectable inhibitory effect
[7]; [9]
  IC50: 50 µM
[7]; [10]
  IC50: 143 µM
[8]; [9]
  IC50: 30 µM
[8]; [10]
  IC50: 20 µM
